Data on two substances can be found in patent US20250381269A1, “BISPECIFIC ANTIBODY BINDING EGFR AND B7-H3” (FORTVITA BIOLOGICS (SINGAPORE) PTE. LTD., priority 2022, published 2025).

Assay [1] relates to H1650. The assay is classed as cell-based, human. The following applies: EGFR Amplification Del19, KRAS WT, huPBMC:target 50:1, 8 h, LDH. On the procedure: (§1) • (1) A CTS medium (Gibco, A3021002) was preheated at 37° C. huPBMC (Miaotong Biotechnology, PB 100C-W) was quickly thawed in a water bath, and then the cells were added slowly to 8 mL of CTS medium (containing 1% DNase). • (2) The mixture was centrifuged at 300 g for 8 min. The supernatant was removed, and the cells were resuspended in 30 mL of CTS (containing 10 μL of DNase), transferred to a T75 flask, and incubated in an incubator at 37° C. overnight. • (3) The suspension cells cultured overnight were taken and centrifuged at 300 g for 8 min. The supernatant was removed, and the cell density was adjusted with CTS. According to an effector/target ratio of effector cells (huPBMCs) to target cells (tumor cells in Table 5) of 50:1, huPBMCs and the tumor cells prepared in advance (Target: huPBMC=1.5E4/7.5E5 cells/well/100 μL) were plated in a 96-well low-adsorption plate (Corning. CLS7007-24EA). • (4) The diluted antibody drug was added to the corresponding cell well plate and cultured at 37° C. with 5% CO2 for 8 h. • (5) The mixture was centrifuged at 300 g for 5 min. 50 μL of the supernatant was transferred to a 96-well transparent flat-bottom plate ((NUNC, 136101), 50 μL of the LDH reagent (Promega, G1780) prepared in advance was added to the corresponding well plate, and the plate was left to stand at room temperature for 15-30 min in the dark. • (6) 50 μL LDH stop solution (Promega, G1780) was taken and detected by a multimode microplate reader (Molecular Devices, Spectra MAXi3) at 490 nm for readings.

In assay [2] the test system is H1975. The assay is classed as cell-based, human. Conditions: EGFR L858R T790M, KRAS WT, huPBMC:target 50:1, 8 h, LDH. On the procedure:
as §1

A further assay deals with H292. The assay is classed as cell-based, human. The following applies: EGFR WT, KRAS WT, huPBMC:target 50:1, 8 h, LDH. The method, then:
as §1

Assay [3] relates to SK-MES-1. It is filed as cell-based, human. The following applies: EGFR Amplification, KRAS WT, huPBMC:target 50:1, 8 h, LDH. On the procedure: as §1
The test system of assay [4] is H322. It is filed as cell-based, human. The following applies: EGFR WT, KRAS WT, huPBMC:target 50:1, 8 h, LDH. The method, then: as §1
The subject of the next assay is H358. It is filed as cell-based, human. The following applies: EGFR WT, KRAS G12C, huPBMC:target 50:1, 8 h, LDH. On the procedure: as §1
The test system of assay [5] is H322. The assay can be described thus: ADCC report assay, H322. The assay is classed as cell-based. Conditions: EGFR WT, KRAS WT, effector/target 10:1, 20 h. On the procedure:
(§2) In the ADCC report assay, ADCC effector cells ((Promega, G7102)) are engineered cells in which FcRIIIa (V158) receptor is overexpressed into Jurkat T cells, which rapidly respond to ADCC through the NFAT-RE driving element within the Jurkat T cells.
(§3) • (1) Tumor cells (cell lines listed in Table 3) and ADCC effector cells (Promega, G7102) were mixed well (1.5E4 cells: 1.5E5 cells/well/100 μL (1.5E5: 1.5E6 cells/mL)) according to an effector/target ratio (10:1), and added to a 96-well white plate (NUNC, 136101). • (2) The antibody molecules prepared in advance by dilution were added to the corresponding cell well plates, mixed well, and cultured at 37° C. with 5% CO2 for 20 h. • (3) The Bio-glo reagent (Promega, G755B) prepared in advance was added to the cell well plate, the plate was left to stand at room temperature for 10-15 min in the dark, and then the cells were detected by a multimode microplate reader (Molecular Devices, Spectra MAXi3).

The next assay has as its system H1703. In words: Proliferation inhibition experiment, H1703 (NSCLC). It is filed as cell-based. Conditions: H1703, EGFR Amplification, KRAS WT. The method, then: (§4) • (1) NSCLC: plated at 1500-2500 cells/100 μL in a 96-well low-adsorption plate (Corning, CLS7007-24EA) for 3D cell culture, in which the following cell lines and specific amounts were used: • NSCLC: 2000 cells/100 μL/well • NCI-H292: Cell Bank of the Chinese Academy of Sciences, SCSP-582 • NCI-H322: Cobioer, CBP60134 • NCI-H1650: ATCC, CRL-5883 • NCI-H1975: ATCC, CRL-5908 • SK-MES-1: CoBioer, CBP60152 • NCI-H1703: ATCC, HTB-43 • PC9+hB7H3: constructed as described above • CRC and HNSCC: plated at 1500-2000 cells/100 μL in a 96-well white-bottom plate (NUNC, 136101) for 2D cell culture, in which the following cell lines and specific amounts were used: • CRC: 1500 cells/100 μL/well • CCK-81: CoBioer, CBP60581 • HT-55: CoBioer, CBP60012 • H508: CoBioer, CBP60795 • LS180: CoBioer, CBP60034 • HNSCC: 1500 cells/100 μL/well • TE-1: CoBioer, CBP60655 • Colo680: CoBioer, CBP60452. (2) The antibody molecules prepared in advance by dilution were added to the corresponding cell well plate, mixed well, and cultured in an incubator at 37° C. with 5% CO2 for 5 days. • (3) After 5 days of continuous culture for proliferation inhibition assay, the Cell-Titer reagent (Promega, G7572) prepared in advance was added to cell wells, the plate was left to stand at room temperature for 15-25 min in the dark, and then CRC and HNSCC cells were directly detected by a multimode microplate reader (Molecular Devices, Spectra MAXi3). • (4) NSCLC: Cell-Titer and the cell mixture were transferred to a 96-well white-bottom plate (NUNC, 136101) and detected by a multimode microplate reader (Molecular Devices, Spectra MAXi3).

Assay [6] concerns H1975. The assay can be described thus: Proliferation inhibition experiment, H1975 (NSCLC). It is filed as cell-based. The following applies: EGFR L858R T790M, KRAS WT. The method, then: as §4
The test system of assay [7] is H1650. The assay can be described thus: ADCC report assay, H1650. It is filed as cell-based. Conditions: EGFR Amplification Del19, KRAS WT, effector/target 10:1, 20 h. On the procedure:
as §2, §3

Assay [8] deals with SK-MES-1. The assay can be described thus: ADCC report assay, SK-MES-1. It is filed as cell-based. Conditions: EGFR Amplification, KRAS WT, effector/target 10:1, 20 h. On the procedure: as §2, §3

Where two headings read alike, the source gives them in different places.

Regarding amivantamab [JNJ372], the EC50 with H1650 [1] was 0.427 nM; in the assay with H1975 [2], 0.117 nM; in the assay on H292, 0.004 nM; with SK-MES-1 [3], 0.072 nM; in the assay on H322 [4] it was 0.032 nM; in the assay with H358, 0.03 nM. The EC50 is 0.106 nM in the assay on H322 [5], 0.102 nM in the assay with H1650 [7] and 0.144 nM with SK-MES-1 [8]. Moreover, the “Max inhibition (%) Mean ± SD” value is given as 44.3 ± 3.4% in the assay on H1703 and 47.9 ± 3.0% in the assay on H1975 [6]. For the same substance, the concentration for half-maximal inhibition (IC50) turned out to be 0.7 nM with H1703 (3D culture, 5 days) and 5.67 nM in the assay on H1975 [6] (3D culture, 5 days).
As for zalutumumab [Zalu mAb], the EC50 was 0.571 nM with H1650 [1]; 0.118 nM in the assay with H1975 [2]; 0.001 nM with H292; 0.014 nM in the assay on SK-MES-1 [3]; 0.014 nM with H322 [4]; 0.007 nM in the assay on H358. The EC50 with H322 [5] was determined as 0.006 nM; in the assay on H1650 [7], 0.021 nM; in the assay on SK-MES-1 [8], 0.011 nM. The results for the “Max inhibition (%) Mean ± SD” value with H1703 and in the assay on H1975 [6] were 45.6 ± 3.8% and 51.0 ± 2.3%, respectively.

The EC50 is the concentration needed to bring the measured effect to its halfway point. High values mean a need for much substance, low ones an effect from little substance. The IC50 is the point on the concentration scale where inhibition reaches its midpoint. High values mean weaker potency, low ones greater potency.
